Results: the NIST ThermoML archive (doi:10.1016/j.jct.2016.11.010)
± gives the expanded uncertainty stated by the source.

Test: mn = molality of the nth substance listed, in mol/kg
Conditions: 100 kPa, Liquid; for speed of sound: Frequency=3 MHz, Sing-around technique in a fixed-path interferometer; for mass density: Vibrating tube method

O=C([O-])CC(O)(CC(=O)[O-])C(=O)[O-].[Li+].[Li+].[Li+] [trilithium citrate] + O
Conditions	mass density, 288.15 K [kg/m3]	mass density, 298.15 K [kg/m3]	mass density, 308.15 K [kg/m3]	mass density, 318.15 K [kg/m3]	speed of sound, 288.15 K [m/s]	speed of sound, 298.15 K [m/s]	speed of sound, 308.15 K [m/s]	speed of sound, 318.15 K [m/s]
m1 = 0.2	1027.57 ± 0.36	1025.15 ± 0.36	1021.94 ± 0.35	1017.98 ± 0.35	1509.4 ± 4.2	1536 ± 4.2	1556.2 ± 4.2	1570.5 ± 4.2
m1 = 0.4	1052.95 ± 0.37	1050.23 ± 0.37	1046.82 ± 0.36	1042.77 ± 0.36	1548.6 ± 4.2	1572.7 ± 4.2	1590.4 ± 4.2	1602.2 ± 4.2
m1 = 0.6	1078.48 ± 0.38	1075.51 ± 0.38	1071.94 ± 0.37	1067.78 ± 0.37	1589.2 ± 4.2	1610.3 ± 4.2	1626 ± 4.2	1636.1 ± 4.2
